What was measured:
Assay type in all cases: cell-based
Human keratinocyte cells = experiment: Stimulation of hydrogen peroxide production, CM-H2DCFDA fluorescence; settings: 0.03% positive control
Procedure: Human keratinocyte cells were seeded in assay plates at identical densities and incubated for 48 hours at 37° C. with 5% CO2. […] Cells were treated with galvanic particulates or zinc or copper metal powders alone over increasing amounts of time. Treatment of control wells with 0.03% hydrogen peroxide served as a positive control. Hydrogen peroxide production was quantitated using a fluorescent plate reader set at wavelengths 485 excitation/530 emission. The results are depicted in Tables 17 and 18.

C. albicans [1] = experiment: Agar disc microwell assay, log reduction by plate count; settings: about 6 log CFU in saline, 37° C., 200 rpm
Procedure: (§1) Agar discs containing copper-zinc galvanic particulates from Example 1(a) or zinc acetate at a concentration of 0.1%, 0.5%, or 1% were exposed to about 6 log CFU of MRSA or C. albicans in saline in microwell plate and incubated at 37° C. and 200 rpm for 24 hrs. Plate count was performed to enumerate the viable microorganisms after the incubation. Log reduction was defined as the log difference of the inoculum before and after the incubation with the test articles (e.g., a log reduction of 6 for the inoculum of 6 log means all the inoculum were killed, and a log reduction of 3 for the inoculum of 6 log means […] of the inoculum were killed).
(§2) Agar discs containing 0.1% copper coated zinc galvanic particulates from Example 1(a) or zinc acetate at 1% or copper acetate at 0.1% were exposed to about 6 log CFU of MRSA or C. albicans in saline in microwell plates, and incubated at 37° C., 200 rpm for 24 hr.
(§3) Plate count was performed to enumerate the viable microorganisms after the incubation. Log reduction was defined as the log difference of the inoculum before and after the incubation with the test articles.

MRSA [2] = experiment: as above; settings: about 6 log CFU in saline, 37° C., 200 rpm
Procedure: as §1, §2, §3

C. albicans [3] = experiment: Zone of inhibition testing versus copper acetate and zinc acetate; settings: about 6 log CFU, 37° C., 24 hr
Procedure: (§4) Zone of inhibition testing was performed on agar discs containing copper-zinc galvanic particulates from Example 1(a) at 0.5%, Zn acetate at 0.5%, and Cu acetate at 0.1%. The discs were placed on TSA agar surface, inoculated with about 6 log CFU of MRSA or C. albicans, and incubated at 37° C. for 24 hr.

MRSA [4] = experiment: as above; settings: about 6 log CFU, 37° C., 24 hr
Procedure: as §4

C. albicans [5] = experiment: Sustained efficacy, zone of inhibition on day 1 and after transfer to new plate on day 2; settings: 1% in agar disc
Procedure: (§5) Agars discs containing either galvanic particulates as described in Example 1(a) or zinc acetate at 1% were placed on TSA agar surface inoculated with about 6 log CFU of MRSA or C. albicans and incubated at 37° C. for 24 hr (day-1).

MRSA [6] = experiment: as above; settings: 1% in agar disc
Procedure: as §5

[7] = system: Human T-cells stimulated with PHA; experiment: Human T-cell cytokine release stimulated with PHA; settings: 100 ug/ml, 10 μg/mL PHA, 48-hour incubation; for Cytokine Release Percent (%) Reduction: IL-2
Procedure: Human T-cells were collected from a healthy adult […] via leukopheresis. The T-cells were isolated from peripheral blood via Ficol gradient, and the cells were adjusted to a density of 1×10^6 cells/mL in serum free lymphocyte growth medium (ExVivo-15, Biowhittaker, Walkersville, Md.). Human T-cells were stimulated with 10 μg/mL PHA in the presence or absence of test compounds following published method (Hamamoto Y., et al. Exp Dermatol 2:231-235, 1993). Following a 48-hour incubation at 37° C. with 5% CO2, supernatant was removed and evaluated for cytokine content using commercially available multiplex cytokine detection kit.

[8] = Table 2, test material 0.10% in agar disc, 24 hrs
[9] = Table 2, test material 0.50% in agar disc, 24 hrs
[10] = Table 2, test material 1.00% in agar disc, 24 hrs
[11] = Table 4, 1% in agar disc, 24 hr
[12] = same disc moved to newly inoculated TSA plate, 24 hr (day-2)
[13] = Table 4, 0.1% in agar disc, 24 hr

For `OO` [Example H2O2, hydrogen peroxide], the “Hydrogen peroxide production (fluorescence), 30 Minutes” value (Human keratinocyte cells) was 416.6 ± 61.3, the “Hydrogen peroxide production (fluorescence), 60 Minutes” value (Human keratinocyte cells) was 591.4 ± 82.7 and the “Hydrogen peroxide production (fluorescence), 200 Minutes” value (Human keratinocyte cells) was 1117.5 ± 153.8. The “Hydrogen peroxide production (fluorescence), 240 Minutes” value (Human keratinocyte cells) was 1214.8 ± 149.7 and the “Hydrogen peroxide production (fluorescence), Baseline” value (Human keratinocyte cells) was 98.1 ± 4.4.

`CC(=O)[O-].CC(=O)[O-].[Zn+2]` [Zinc Acetate, zinc acetate] was tested, and the “LOG REDUCTION C. albicans” value (C. albicans [1]; [8]) was 2.2, the “LOG REDUCTION C. albicans” value (C. albicans [1]; [9]) was 2.9 and the “LOG REDUCTION C. albicans” value (C. albicans [1]; [10]) was 4.7. For the same compound, the “LOG REDUCTION C. albicans” value (C. albicans [1]; [11]) was 4.7, the “LOG REDUCTION MRSA” value (MRSA [2]; [8]) was 1.7 and the “LOG REDUCTION MRSA” value (MRSA [2]; [9]) was 3.2. For the same compound, the “LOG REDUCTION MRSA” value (MRSA [2]; [10]) was 5.1, the “LOG REDUCTION MRSA” value (MRSA [2]; [11]) was 5.1 and the zone of inhibition (C. albicans [3]; 0.5% in agar disc on TSA agar) was “smaller zone of inhibition, approximately one half the radius”. For the same compound, the zone of inhibition (MRSA [4]; 0.5% in agar disc on TSA agar) was “smaller zone of inhibition, approximately one half the radius”, the “zone of inhibition, day 1” value (C. albicans [5]; 37° C., 24 hr (day-1)) was “produce a zone of inhibition” and the “zone of inhibition, day 2” value (C. albicans [5]; [12]) was “did not show any inhibition”. The “zone of inhibition, day 1” value (MRSA [6]; 37° C., 24 hr (day-1)) was “produce a zone of inhibition” and the “zone of inhibition, day 2” value (MRSA [6]; [12]) was “did not show any inhibition”.

For `C[C@]12CCC(=O)C=C1CC[C@@H]1[C@@H]2[C@@H](O)C[C@@]2(C)[C@H]1CC[C@]2(O)C(=O)CO` [Hydrocortisone], the “Cytokine Release IL-2” value [7] was 7.69 ± 5.64 pmol/mL and the “Cytokine Release Percent (%) Reduction” value [7] was 98.6%.

With `[Cl-].[Cl-].[Zn+2]` [Zinc Chloride] the “Cytokine Release IL-2” value [7] was 566.3 ± 20.6 pmol/mL and the “Cytokine Release Percent (%) Reduction” value [7] was −0.6%.

In the case of copper acetate, the “LOG REDUCTION C. albicans” value (C. albicans [1]; [13]) is reported as 0.3, the “LOG REDUCTION MRSA” value (MRSA [2]; [13]) is reported as 0.2 and the zone of inhibition (C. albicans [3]; 0.1% in agar disc on TSA agar) is reported as “did not show any visible zone of inhibition”. The zone of inhibition (MRSA [4]; 0.1% in agar disc on TSA agar) was “did not show any visible zone of inhibition”, the “Cytokine Release IL-2” value [7] was 312.9 ± 96.8 pmol/mL and the “Cytokine Release Percent (%) Reduction” value [7] was 44.4%.

Source: patent publication US20130295150A1, “ELECTRICITY-GENERATING PARTICULATES AND THE USE THEREOF” (Johnson & Johnson Consumer Companies, Inc., priority 2007, published 2013)
